Measured values reported in patent US9890142B2, “PDE4 inhibitor” (Meiji Seika Pharma Co., Ltd., priority 2013, dated 2018).

Tested on: PDE4
Test: Evaluation of PDE4 inhibition (scintillation proximity assay)
Format: biochemical
Details: inhibition rate relative to control, test compound at 1 μM
Protocol: Test Example 1 Evaluation of PDE4 Inhibition
The PDE4 inhibitory activity was measured by using scintillation proximity assay (SPA) as follows: one in which a sample compound dissolved in dimethyl sulfoxide was diluted 10-fold with a buffer solution for reaction containing 50 mM Tris-HCl, pH 7.5, 8.3 mM MgCl2, 1.7 mM EDTA and 0.3 mg/mL bovine serum albumin (BSA) was added at 10 μL/well to a 96-well assay plate. Further, PDE4 diluted 750-fold with a buffer solution for reaction was added at 50 μL/well, then [2,8-^3H]-Adenosine-3′,5′-cyclic phosphate triethylammonium salt diluted 1000-fold with a buffer solution for reaction was added at 40 μL/well, and the plate was left standing at room temperature for 120 minutes. Thereafter, a suspension of RNA binding YSi-SPA Beads containing 200 mM ZnSO4 was added at 50 μL/well, and the plate was left standing at room temperature for 15 minutes to adsorb the enzyme reaction product onto the Beads. Thereafter, the radioactivity was measured with a liquid scintillation counter for 96-well plates. When one supplemented with only a buffer solution for reaction without adding the enzyme preparation was used as a blank and one supplemented with the enzyme preparation but supplemented with only dimethyl sulfoxide instead of the sample solution was used as a control, the inhibition rate of the test compound relative to the control was calculated according to the following calculation expression: Inhibition rate (%)={1−(Numeric value from the addition of each sample−Blank value)/(Control value−Blank value)}×100

C[C@H]1CNCCN1c1nc2cc(Cl)cc(-c3ncc(C(N)=O)s3)c2o1 [Example 65, (S)-5-Chloro-7-(5-carbamoylthiazol-2-yl)-2-(2-methylpiperazin-1-yl)benzoxazole]
PDE4 inhibitory activity (1 μM (%)): 83%

C[C@H]1CNCCN1c1nc2cc(Cl)cc(-c3ncccc3C#N)c2o1 [Example 66, (S)-5-Chloro-7-(3-cyanopyridin-2-yl)-2-(2-methylpiperazin-1-yl)benzoxazole]
PDE4 inhibitory activity (1 μM (%)): 57%

C[C@H]1CNCCN1c1nc2cc(Cl)cc(-c3ccc(F)s3)c2o1 [Example 67, (S)-5-Chloro-7-(5-fluorothiophen-2-yl)-2-(2-methylpiperazin-1-yl)benzoxazole]
PDE4 inhibitory activity (1 μM (%)): 70%

Cc1cccnc1-c1cc(Cl)cc2nc(N3CCNC[C@@H]3C)oc12 [Example 68, (S)-5-Chloro-2-(2-methylpiperazin-1-yl)-7-(3-methylpyridin-2-yl)benzoxazole]
PDE4 inhibitory activity (1 μM (%)): 38%

Cc1nc(-c2cc(Cl)cc3nc(N4CCNC[C@@H]4C)oc23)cs1 [Example 69, (S)-5-Chloro-2-(2-methylpiperazin-1-yl)-7-(2-methylthiazol-4-yl)benzoxazole]
PDE4 inhibitory activity (1 μM (%)): 65%

C[C@H]1CNCCN1c1nc2cc(Cl)cc(Oc3ccccc3)c2o1 [Example 70, (S)-5-Chloro-2-(2-methylpiperazin-1-yl)-7-phenoxybenzoxazole]
PDE4 inhibitory activity (1 μM (%)): 38%

C[C@H]1CNCCN1c1nc2cc(Cl)cc(N3CCCC3=O)c2o1 [Example 71, (S)-5-Chloro-2-(2-methylpiperazin-1-yl)-7-(2-oxo-pyrrolidin-1-yl)benzoxazole]
PDE4 inhibitory activity (1 μM (%)): 30%

C[C@H]1CNCCN1c1nc2cc(Cl)cc(N3CCOC3=O)c2o1 [Example 72, (S)-5-Chloro-2-(2-methylpiperazin-1-yl)-7-(2-oxo-oxazolidin-3-yl)benzoxazole]
PDE4 inhibitory activity (1 μM (%)): 28%

C[C@H]1CNCCN1c1nc2cc(Cl)cc(-c3ccc(F)cn3)c2o1 [Example 73, (S)-5-Chloro-7-(5-fluoropyridin-2-yl)-2-(2-methylpiperazin-1-yl)benzoxazole]
PDE4 inhibitory activity (1 μM (%)): 93%

C[C@H]1CNCCN1c1nc2cc(Cl)cc(-c3ncc(Cl)s3)c2o1 [Example 74, (S)-5-Chloro-7-(5-chlorothiazol-2-yl)-2-(2-methylpiperazin-1-yl)benzoxazole]
PDE4 inhibitory activity (1 μM (%)): 83%

C[C@H]1CNCCN1c1nc2cc(Cl)cc(Cc3ccccc3)c2o1 [Example 75, (S)-7-Benzyl-5-chloro-2-(2-methylpiperazin-1-yl)benzoxazole]
PDE4 inhibitory activity (1 μM (%)): 45%

C[C@H]1CNCCN1c1nc2cc(Cl)cc(-c3ncsc3CO)c2o1 [Example 76, (S)-5-Chloro-7-(5-(hydroxymethyl)thiazol-4-yl)-2-(2-methylpiperazin-1-yl)benzoxazole]
PDE4 inhibitory activity (1 μM (%)): 73%

C[C@H]1CNCCN1c1nc2cc(Cl)cc(Oc3nccs3)c2o1 [Example 77, (S)-5-Chloro-2-(2-methylpiperazin-1-yl)-7-(thiazol-2-yloxy)benzoxazole]
PDE4 inhibitory activity (1 μM (%)): 30%

C[C@H]1CNCCN1c1nc2cc(Cl)cc(-c3ncc([N+](=O)[O-])s3)c2o1 [Example 78, (S)-5-Chloro-2-(2-methylpiperazin-1-yl)-7-(5-nitrothiazol-2-yl)benzoxazole]
PDE4 inhibitory activity (1 μM (%)): 58%

COc1cccnc1-c1cc(Cl)cc2nc(N3CCNC[C@@H]3C)oc12 [Example 79, (S)-5-Chloro-7-(3-methoxypyridin-2-yl)-2-(2-methylpiperazin-1-yl)benzoxazole]
PDE4 inhibitory activity (1 μM (%)): 53%

C[C@H]1CNCCN1c1nc2cc(Cl)cc(-c3ccc(F)cc3)c2o1 [Example 81, (S)-5-Chloro-7-(4-fluorophenyl)-2-(2-methylpiperazin-1-yl)benzoxazole]
PDE4 inhibitory activity (1 μM (%)): 68%

C[C@H]1CNCCN1c1nc2c(C(F)(F)F)c(Cl)cc(-c3ccccn3)c2o1 [Example 82, (S)-5-Chloro-2-(2-methylpiperazin-1-yl)-7-(pyridin-2-yl)-4-(trifluoromethyl)benzoxazole]
PDE4 inhibitory activity (1 μM (%)): 94%

C[C@H]1CNCCN1c1nc2c(C(F)(F)F)c(Cl)cc(-n3cccn3)c2o1 [Example 83, (S)-5-Chloro-2-(2-methylpiperazin-1-yl)-7-(1H-pyrazol-1-yl)-4-(trifluoromethyl)benzoxazole]
PDE4 inhibitory activity (1 μM (%)): 92%

C[C@H]1CNCCN1c1nc2c(C(F)(F)F)c(Cl)cc(-c3nccs3)c2o1 [Example 84, (S)-5-Chloro-2-(2-methylpiperazin-1-yl)-7-(thiazol-2-yl)-4-(trifluoromethyl)benzoxazole]
PDE4 inhibitory activity (1 μM (%)): 95%

C[C@H]1CNCCN1c1nc2cc(Cl)c(C(F)(F)F)c(-c3ccccn3)c2o1 [Example 85, (S)-5-Chloro-2-(2-methylpiperazin-1-yl)-7-(pyridin-2-yl)-6-(trifluoromethyl)benzoxazole]
PDE4 inhibitory activity (1 μM (%)): 26%

C[C@H]1CNCCN1c1nc2c(OC(F)(F)F)c(Cl)cc(-c3ccccn3)c2o1 [Example 86, (S)-5-Chloro-2-(2-methylpiperazin-1-yl)-7-(pyridin-2-yl)-4-(trifluoromethoxy)benzoxazole]
PDE4 inhibitory activity (1 μM (%)): 91%

C[C@H]1CNCCN1c1nc2c(OC(F)(F)F)c(Cl)cc(-c3nccs3)c2o1 [Example 87, (S)-5-Chloro-2-(2-methylpiperazin-1-yl)-7-(thiazol-2-yl)-4-(trifluoromethoxy)benzoxazole]
PDE4 inhibitory activity (1 μM (%)): 96%

C[C@H]1CNCCN1c1nc2c(OC(F)(F)F)c(Cl)cc(-n3cccn3)c2o1 [Example 88, (S)-5-Chloro-2-(2-methylpiperazin-1-yl)-7-(1H-pyrazol-1-yl)-4-(trifluoromethoxy)benzoxazole]
PDE4 inhibitory activity (1 μM (%)): 95%

C[C@H]1CNCCN1c1nc2c(F)c(F)cc(-c3ccccn3)c2o1 [Example 89, (S)-4,5-Difluoro-2-(2-methylpiperazin-1-yl)-7-(pyridin-2-yl)benzoxazole]
PDE4 inhibitory activity (1 μM (%)): 88%

C[C@H]1CNCCN1c1nc2c(F)c(F)cc(-c3nccs3)c2o1 [Example 90, (S)-4,5-Difluoro-2-(2-methylpiperazin-1-yl)-7-(thiazol-2-yl)benzoxazole]
PDE4 inhibitory activity (1 μM (%)): 96%

C[C@H]1CNCCN1c1nc2c(F)c(F)cc(-n3cccn3)c2o1 [Example 91, (S)-4,5-Difluoro-2-(2-methylpiperazin-1-yl)-7-(1H-pyrazol-1-yl)benzoxazole]
PDE4 inhibitory activity (1 μM (%)): 89%

C[C@H]1CNCCN1c1nc2cc(Cl)c(F)c(-c3ccccn3)c2o1 [Example 92, (S)-5-Chloro-6-fluoro-2-(2-methylpiperazin-1-yl)-7-(pyridin-2-yl)benzoxazole]
PDE4 inhibitory activity (1 μM (%)): 71%

C[C@H]1CNCCN1c1nc2cc(Cl)c(F)c(-c3nccs3)c2o1 [Example 93, (S)-5-Chloro-6-fluoro-2-(2-methylpiperazin-1-yl)-7-(thiazol-2-yl)benzoxazole]
PDE4 inhibitory activity (1 μM (%)): 95%

C[C@H]1CNCCN1c1nc2cc(Cl)c(F)c(-n3cccn3)c2o1 [Example 94, (S)-5-Chloro-6-fluoro-2-(2-methylpiperazin-1-yl)-7-(1H-pyrazol-1-yl)benzoxazole]
PDE4 inhibitory activity (1 μM (%)): 62%

CCCc1cc(Cl)cc2nc(N3CCNC[C@@H]3C)oc12 [Example 95, (S)-5-Chloro-2-(2-methylpiperazin-1-yl)-7-n-propylbenzoxazole]
PDE4 inhibitory activity (1 μM (%)): 71%
